ChEMBL document CHEMBL4480363, “Recent developments in compounds acting in the DNA minor groove” (Medchemcomm, 2019)
Converted amounts (≈) assume the structure as drawn.

How the values were obtained:
Candida albicans = test: Antifungal activity against Candida albicans SC5314 incubated for 24 hrs by CLSI based broth microdilution method; format: functional; conditions: SC5314, 24 h
Nakaseomyces glabratus = test: Antifungal activity against Candida glabrata ATCC 2001 incubated for 24 hrs by CLSI based broth microdilution method; format: functional; conditions: ATCC 2001, 24 h
Candida parapsilosis = test: Antifungal activity against Candida parapsilosis ATCC 22019 incubated for 24 hrs by CLSI based broth microdilution method; format: functional; conditions: Lodderomyces parapsilosis, ATCC 22019, 24 h
[1] = tested on: Mycobacterium tuberculosis; test: Antitubercular activity against Mycobacterium tuberculosis HN878 in presence of non-ionic surfactant vesicles relative to compound alone; format: functional
[2] = tested on: Mycobacterium tuberculosis; test: Antitubercular activity against Mycobacterium tuberculosis HN878; format: functional
[3] = tested on: Trypanosoma brucei gambiense; test: Trypanocidal activity against Trypanosoma brucei gambiense; format: functional, organism-based

| SMILES | MIC50 (Candida albicans) | MIC50 (Nakaseomyces glabratus) | MIC50 (Candida parapsilosis) | fold change (FC) [1] | MIC50 [2] | IC50 [3] |
| --- | --- | --- | --- | --- | --- | --- |
| Cl.Cl.N=C(N)N/N=C/c1ccc(-c2ccc(/C=N/NC(=N)N)s2)cc1 | 2 to 15.6 µg/mL | 2 to 15.6 µg/mL | 2 to 15.6 µg/mL |  |  |  |
| Cn1cc(NC(=O)c2cc(NC(=O)c3ccc(/C=C/c4ccc(C(F)(F)F)cc4)cc3)cn2C)cc1C(=O)NCCC(=N)N |  |  |  | 2.1 | 4.19 µM (≈ 2.54 µg/mL) |  |
| Cl.Cl.N=C(N)N/N=C/c1ccc(-c2cnc(-c3ccc(/C=N/NC(=N)N)cc3)s2)cc1 | 2 to 15.6 µg/mL | 2 to 15.6 µg/mL | 2 to 15.6 µg/mL |  |  |  |
| Cn1cc(NC(=O)c2cc(NC(=O)c3ccc(/C=C/c4nc5ccccc5s4)cc3)cn2C)cc1C(=O)NCCC(=N)N |  |  |  | 1.6 | 4.09 µM (≈ 2.43 µg/mL) |  |
| C/C(=N\NC(=N)N)c1ccc(-c2ccc(/C(C)=N/NC(=N)N)s2)cc1.Cl.Cl | 2 to 15.6 µg/mL | 2 to 15.6 µg/mL | 2 to 15.6 µg/mL |  |  |  |
| Cl.Cl.N=C(N)N/N=C/c1ccc(-c2ccc(/C=N/NC(=N)N)o2)cc1 | 2 to 15.6 µg/mL | 2 to 15.6 µg/mL | 2 to 15.6 µg/mL |  |  |  |
| N=C(N)c1ccc(OCCCCCOc2ccc(C(=N)N)cc2)cc1 [PENTAMIDINE] |  |  |  |  |  | 1 to 10 nM |
